One test deals with ErbB2 WT (Homo sapiens (Human), UniProt P04626). As to the kind of experiment: ErbB Enzyme Assay (HTRF KinEASE-TK), Assay 2. It counts as biochemical. For orientation: Time-resolved FRET reads energy transfer from a long-lived donor to a nearby acceptor.
Test [1] addresses ErbB2 with Exon 20 YVMA insertion (HER2-YVMA) (Homo sapiens (Human), UniProt P04626, INS775YVMA). The test is described as follows: Cellular Phosphorylation Assay, Assay 4 (constitutive ErbB2 phosphorylation, NIH 3T3 cells). It counts as cell-based.
The target in the next test is EGFR (Homo sapiens (Human), UniProt P00533). The test is described as follows: ErbB Enzyme Assay (HTRF KinEASE-TK), Assay 3. The class given is biochemical.
The target in the next test is EGFR wild type (EGFR WT) (Homo sapiens (Human), UniProt P00533). As to the kind of experiment: Cellular Phosphorylation Assay, Assay 5 (EGF-stimulated EGFR phosphorylation, NIH 3T3 cells). It counts as cell-based.
Setting [2] is: cellular ErbB2 YVMA phosphorylation.
The mark [3] stands for this setting: cellular EGFR WT phosphorylation, EGF-stimulated.
The mark [4] stands for this setting: EGF-stimulated EGFR WT phosphorylation.

Molecules are shown by their SMILES.

Chain of EGFR wild type (EGFR WT) (P00533 25-1210): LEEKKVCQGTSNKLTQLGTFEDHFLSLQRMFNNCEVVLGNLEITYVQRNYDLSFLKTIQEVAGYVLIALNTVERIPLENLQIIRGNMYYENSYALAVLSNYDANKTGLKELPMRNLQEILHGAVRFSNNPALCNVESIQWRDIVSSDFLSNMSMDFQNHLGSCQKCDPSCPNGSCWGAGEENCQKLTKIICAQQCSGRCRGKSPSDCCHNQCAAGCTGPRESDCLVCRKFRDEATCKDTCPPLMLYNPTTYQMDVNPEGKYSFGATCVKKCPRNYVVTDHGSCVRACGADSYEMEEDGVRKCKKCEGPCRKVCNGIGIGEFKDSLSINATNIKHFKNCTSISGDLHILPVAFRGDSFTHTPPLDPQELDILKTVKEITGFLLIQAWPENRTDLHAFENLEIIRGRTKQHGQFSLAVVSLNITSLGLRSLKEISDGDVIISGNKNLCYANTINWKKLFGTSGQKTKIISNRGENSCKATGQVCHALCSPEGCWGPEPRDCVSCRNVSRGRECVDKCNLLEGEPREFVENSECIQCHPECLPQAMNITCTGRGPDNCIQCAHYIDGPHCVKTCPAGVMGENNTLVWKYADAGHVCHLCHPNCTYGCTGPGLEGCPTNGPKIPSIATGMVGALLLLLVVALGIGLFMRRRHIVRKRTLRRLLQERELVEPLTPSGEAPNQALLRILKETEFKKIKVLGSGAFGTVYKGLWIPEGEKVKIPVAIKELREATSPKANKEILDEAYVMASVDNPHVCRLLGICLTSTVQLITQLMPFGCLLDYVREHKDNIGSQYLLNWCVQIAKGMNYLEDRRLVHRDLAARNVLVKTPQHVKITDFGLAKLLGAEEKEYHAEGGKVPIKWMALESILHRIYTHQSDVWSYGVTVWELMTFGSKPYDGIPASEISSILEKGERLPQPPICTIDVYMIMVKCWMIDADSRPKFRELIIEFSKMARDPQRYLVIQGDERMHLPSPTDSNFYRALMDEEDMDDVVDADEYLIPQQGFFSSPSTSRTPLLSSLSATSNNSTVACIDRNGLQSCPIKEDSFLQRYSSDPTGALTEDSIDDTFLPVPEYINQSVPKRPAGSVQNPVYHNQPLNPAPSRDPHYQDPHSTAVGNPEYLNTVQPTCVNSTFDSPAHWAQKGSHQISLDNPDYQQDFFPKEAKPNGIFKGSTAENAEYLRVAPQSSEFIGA
Chain of EGFR (P00533 25-1210): as above
Chain of ErbB2 with Exon 20 YVMA insertion (HER2-YVMA) (P04626 other isoform, or with tags, fused parts or gaps ins YVMA behind 775): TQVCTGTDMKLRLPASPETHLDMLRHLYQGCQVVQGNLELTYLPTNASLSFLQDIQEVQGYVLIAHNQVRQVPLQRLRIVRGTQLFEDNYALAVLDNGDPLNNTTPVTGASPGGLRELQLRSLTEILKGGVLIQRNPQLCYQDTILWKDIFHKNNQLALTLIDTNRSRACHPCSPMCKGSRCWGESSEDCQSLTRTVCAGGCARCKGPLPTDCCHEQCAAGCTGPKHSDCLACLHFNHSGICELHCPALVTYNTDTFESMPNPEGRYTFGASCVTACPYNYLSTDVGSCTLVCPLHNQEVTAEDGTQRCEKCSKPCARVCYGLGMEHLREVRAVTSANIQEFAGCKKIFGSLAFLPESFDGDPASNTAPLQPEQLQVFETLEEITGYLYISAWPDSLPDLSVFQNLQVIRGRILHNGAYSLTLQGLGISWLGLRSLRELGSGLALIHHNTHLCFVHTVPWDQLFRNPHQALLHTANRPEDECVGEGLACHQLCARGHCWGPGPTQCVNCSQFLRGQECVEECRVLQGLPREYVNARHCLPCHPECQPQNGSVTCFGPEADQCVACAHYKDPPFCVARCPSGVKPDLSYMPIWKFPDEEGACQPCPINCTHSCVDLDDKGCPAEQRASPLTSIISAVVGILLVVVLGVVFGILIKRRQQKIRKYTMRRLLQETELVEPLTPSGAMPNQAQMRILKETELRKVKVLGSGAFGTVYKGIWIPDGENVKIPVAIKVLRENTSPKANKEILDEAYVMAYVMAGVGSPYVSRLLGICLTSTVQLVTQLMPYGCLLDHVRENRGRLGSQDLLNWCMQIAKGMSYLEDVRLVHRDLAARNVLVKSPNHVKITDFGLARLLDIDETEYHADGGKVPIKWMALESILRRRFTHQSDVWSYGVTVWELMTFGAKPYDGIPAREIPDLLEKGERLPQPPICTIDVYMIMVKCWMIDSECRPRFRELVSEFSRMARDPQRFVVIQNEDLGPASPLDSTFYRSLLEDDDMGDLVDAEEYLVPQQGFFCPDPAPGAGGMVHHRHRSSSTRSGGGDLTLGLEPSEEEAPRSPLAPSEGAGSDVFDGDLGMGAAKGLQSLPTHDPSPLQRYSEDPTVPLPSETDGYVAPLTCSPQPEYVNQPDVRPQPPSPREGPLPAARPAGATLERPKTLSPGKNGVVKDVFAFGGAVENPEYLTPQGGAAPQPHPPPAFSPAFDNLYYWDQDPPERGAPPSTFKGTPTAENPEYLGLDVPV
Chain of ErbB2 WT (P04626 23-1255): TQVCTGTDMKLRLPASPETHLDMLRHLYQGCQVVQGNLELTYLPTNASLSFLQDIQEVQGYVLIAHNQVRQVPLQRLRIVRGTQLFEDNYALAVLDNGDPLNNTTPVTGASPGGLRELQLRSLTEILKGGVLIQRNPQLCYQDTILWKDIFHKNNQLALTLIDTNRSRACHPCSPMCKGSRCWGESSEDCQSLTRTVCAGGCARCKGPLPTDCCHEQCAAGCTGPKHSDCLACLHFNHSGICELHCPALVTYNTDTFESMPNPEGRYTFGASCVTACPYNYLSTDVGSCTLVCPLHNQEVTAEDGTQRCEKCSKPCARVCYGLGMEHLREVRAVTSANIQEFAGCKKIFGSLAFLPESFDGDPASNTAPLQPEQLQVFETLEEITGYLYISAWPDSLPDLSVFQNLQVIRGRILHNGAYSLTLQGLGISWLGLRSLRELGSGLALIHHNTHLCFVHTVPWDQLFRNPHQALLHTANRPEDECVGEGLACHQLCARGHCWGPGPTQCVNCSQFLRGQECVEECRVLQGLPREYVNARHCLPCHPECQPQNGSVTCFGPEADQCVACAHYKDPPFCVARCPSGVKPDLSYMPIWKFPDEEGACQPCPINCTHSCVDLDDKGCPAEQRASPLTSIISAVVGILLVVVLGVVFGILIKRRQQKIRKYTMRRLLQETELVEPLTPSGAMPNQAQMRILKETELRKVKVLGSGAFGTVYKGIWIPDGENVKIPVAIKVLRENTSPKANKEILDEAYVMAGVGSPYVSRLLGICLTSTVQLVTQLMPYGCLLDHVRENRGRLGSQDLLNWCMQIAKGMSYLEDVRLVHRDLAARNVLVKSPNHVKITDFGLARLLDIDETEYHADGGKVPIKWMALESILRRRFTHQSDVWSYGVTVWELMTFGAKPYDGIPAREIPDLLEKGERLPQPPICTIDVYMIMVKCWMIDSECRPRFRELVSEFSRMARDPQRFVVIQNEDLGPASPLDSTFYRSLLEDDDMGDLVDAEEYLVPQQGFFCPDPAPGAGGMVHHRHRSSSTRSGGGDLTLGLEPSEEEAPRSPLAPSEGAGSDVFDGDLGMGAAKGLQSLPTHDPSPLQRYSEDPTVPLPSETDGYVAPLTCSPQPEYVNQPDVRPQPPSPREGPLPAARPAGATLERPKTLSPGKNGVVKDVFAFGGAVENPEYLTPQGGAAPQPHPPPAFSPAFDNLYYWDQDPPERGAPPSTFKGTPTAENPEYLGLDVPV

For `C=CC(=O)N1C[C@@H]2C[C@H](c3ccc4ncnc(Nc5cc(C)c(Oc6ccn7ncnc7c6)cc5F)c4n3)C[C@H]1C2` [Example 390], the IC50 against ErbB2 WT (ErbB2 WT enzyme assay) was determined as 68.1 nM; in test [1] (setting [2]) it was 30.2 nM; on EGFR (EGFR enzyme assay), 2210 nM; on EGFR wild type (EGFR WT) (setting [3]), 1250 nM.
With `C=CC(=O)N1CC[C@@H]2C[C@H]1CN2c1ccc2ncnc(Nc3cc(C)c(Oc4ccc5c(c4)ncn5C)cc3F)c2n1` [Example 66, 1-((1S,5R)-6-(4-((2-fluoro-5-methyl-4-((1-methyl-1H-benzo[d]imidazol-5-yl)oxy)phenyl)amino)pyrido[3,2-d]pyrimidin-6-yl)-2,6-diazabicyclo[3.2.1]octan-2-yl)prop-2-en-1-one], the half-maximal inhibitory concentration (IC50) against ErbB2 WT (ErbB2 WT enzyme) stood at 6.8 nM; in test [1] (ErbB2 YVMA phosphorylation) it was 6.1 nM; against EGFR (EGFR enzyme), 84.5 nM; on EGFR wild type (EGFR WT) (setting [4]) it was 153 nM.
`C=CC(=O)N1CCN(c2ccc3ncnc(Nc4ccc(Oc5ccn6ncnc6c5)c(Cl)c4F)c3n2)C[C@@H]1C(C)C` [Example 293]: the IC50 on ErbB2 WT (ErbB2 WT enzyme assay) is 50.5 nM; in test [1] (setting [2]) it was 21.2 nM; against EGFR (EGFR enzyme assay), 2330 nM; at EGFR wild type (EGFR WT) (setting [3]) it was at least 5000 nM.
Turning to `C=CC(=O)N1C[C@@H]2C[C@H](c3ccc4ncnc(Nc5ccc(Oc6ccn7ncnc7c6)c(C)c5F)c4n3)C[C@H]1C2` [Example 391], the IC50 on ErbB2 WT (ErbB2 WT enzyme assay) turned out to be 23.9 nM; in test [1] (setting [2]), 19.8 nM; on EGFR (EGFR enzyme assay), 368 nM; on EGFR wild type (EGFR WT) (setting [3]), 238 nM.
Regarding `C=CC(=O)N1CCC(Oc2ccc3ncnc(Nc4ccc(Oc5ccc6cn(C)nc6c5)c(F)c4)c3n2)CC1` [Example 12, 1-(4-((4-((3-fluoro-4-((2-methyl-2H-indazol-6-yl)oxy)phenyl)amino)pyrido[3,2-d]pyrimidin-6-yl)oxy)piperidin-1-yl)prop-2-en-1-one], the IC50 is 1030 nM against ErbB2 WT (ErbB2 WT enzyme), 193 nM in test [1] (ErbB2 YVMA phosphorylation), at least 10000 nM on EGFR (EGFR enzyme) and at least 5000 nM against EGFR wild type (EGFR WT) (setting [4]).
Regarding `C=CC(=O)N1[C@@H]2CC[C@H]1[C@H](c1ccc3ncnc(Nc4cc(C)c(Oc5ccn6ncnc6c5)cc4F)c3n1)C2` [Example 392], the half-inhibitory concentration (IC50) is 9.8 nM against ErbB2 WT (ErbB2 WT enzyme assay), 82 nM in test [1] (setting [2]), 1480 nM against EGFR (EGFR enzyme assay) and at least 5000 nM on EGFR wild type (EGFR WT) (setting [3]).
The corresponding values for `C=CC(=O)N1C[C@H]2CC[C@@H]1[C@@H](c1ccc3ncnc(Nc4cc(C)c(Oc5cnc6c(c5)ncn6C)cc4F)c3n1)C2` [Example 425] are 212 nM, 50.5 nM, at least 10000 nM and at least 5000 nM.
For `C=CC(=O)N1[C@H](C)C[C@@H](c2ccc3ncnc(Nc4ccc(Oc5ccc6c(c5)ncn6C)c(C)c4F)c3n2)C[C@@H]1C` [Example 166, 1-((2R,4SR,6S)-4-(4-((2-fluoro-3-methyl-4-((1-methyl-1H-benzo[d]imidazol-5-yl)oxy)phenyl)amino)pyrido[3,2-d]pyrimidin-6-yl)-2,6-dimethylpiperidin-1-yl)prop-2-en-1-one], the concentration for half-maximal inhibition (IC50) is 64.2 nM against ErbB2 WT (ErbB2 WT enzyme), 64.6 nM in test [1] (ErbB2 YVMA phosphorylation), at least 10000 nM on EGFR (EGFR enzyme) and at least 5000 nM at EGFR wild type (EGFR WT) (setting [4]).
On to `C=CC(=O)N1CCC(Oc2ccc3ncnc(Nc4cc(C)c(Oc5ccc6cn(C)nc6c5)cc4F)c3n2)CC1` [Example 5, 1-(4-((4-((2-fluoro-5-methyl-4-((2-methyl-2H-indazol-6-yl)oxy)phenyl)amino)pyrido[3,2-d]pyrimidin-6-yl)oxy)piperidin-1-yl)prop-2-en-1-one], for which the IC50 at ErbB2 WT (ErbB2 WT enzyme) was 2340 nM; in test [1] (ErbB2 YVMA phosphorylation), 407 nM; against EGFR (EGFR enzyme) it was at least 10000 nM; against EGFR wild type (EGFR WT) (setting [4]), at least 5000 nM.
Turning to `C=CC(=O)N1CCC12CN(c1ccc3ncnc(Nc4ccc(Oc5ccn6ncnc6c5)c(Cl)c4F)c3n1)C2` [Example 360], the 50% inhibitory concentration (IC50) against ErbB2 WT (ErbB2 WT enzyme assay) came out at 8.8 nM; in test [1] (setting [2]) it was 4.1 nM; against EGFR (EGFR enzyme assay), 121 nM; at EGFR wild type (EGFR WT) (setting [3]), 178 nM.
Regarding `C=CC(=O)N(C)[C@H]1CCN(c2ccc3ncnc(Nc4ccc(Oc5ccn6ncnc6c5)c(C)c4F)c3n2)C1` [Example 352], the IC50 on ErbB2 WT (ErbB2 WT enzyme assay) was 25.4 nM; in test [1] (setting [2]) it was 11.5 nM; on EGFR (EGFR enzyme assay) it was 2910 nM; against EGFR wild type (EGFR WT) (setting [3]), at least 5000 nM.
Turning to `C=CC(=O)N1CCC(Oc2ccc3ncnc(Nc4ccc(Oc5cnn6ccnc6c5)c(C)c4F)c3n2)CC1` [Example 56, 1-(4-((4-((2-fluoro-4-(imidazo[1,2-b]pyridazin-7-yloxy)-3-methylphenyl)amino)pyrido[3,2-d]pyrimidin-6-yl)oxy)piperidin-1-yl)prop-2-en-1-one], the IC50 amounted to 233 nM at ErbB2 WT (ErbB2 WT enzyme), 19.7 nM in test [1] (ErbB2 YVMA phosphorylation), 1440 nM at EGFR (EGFR enzyme) and 374 nM at EGFR wild type (EGFR WT) (setting [4]).
The matching figures for `C=CC(=O)N1C[C@H]2C[C@@H]1CN2c1ccc2ncnc(Nc3ccc(Oc4ccn5ncnc5c4)c(Cl)c3F)c2n1` [Example 92, 1-((1R,4R)-5-(4-((4-([1,2,4]triazolo[1,5-a]pyridin-7-yloxy)-3-chloro-2-fluorophenyl)amino)pyrido[3,2-d]pyrimidin-6-yl)-2,5-diazabicyclo[2.2.1]heptan-2-yl)prop-2-en-1-one]: 126 nM, 15.4 nM, 2430 nM and 1880 nM.
`Cc1c(Oc2ccn3ncnc3c2)ccc(Nc2ncnc3ccc(N4C[C@@H]5CCN(C(=O)C67CC6C7)[C@@H]5C4)nc23)c1F` (stereo partly drawn) [Example 27, ((3aS,6aS)-5-(4-((4-([1,2,4]triazolo[1,5-a]pyridin-7-yloxy)-2-fluoro-3-methylphenyl)amino)pyrido[3,2-d]pyrimidin-6-yl)hexahydropyrrolo[3,4-b]pyrrol-1(2H)-yl)(bicyclo[1.1.0]butan-1-yl)methanone]: the IC50 against ErbB2 WT (ErbB2 WT enzyme) was 486 nM; in test [1] (ErbB2 YVMA phosphorylation), 381 nM; on EGFR (EGFR enzyme) it was at least 10000 nM; against EGFR wild type (EGFR WT) (setting [4]), at least 5000 nM.
The matching figures for `C=CC(=O)N1[C@@H]2CC[C@H]1C[C@@H](c1ccc3ncnc(Nc4cc(C)c(Oc5cnc6c(c5)ncn6C)cc4F)c3n1)C2` [Example 226, 1-((1R,3r,5S)-3-(4-((2-fluoro-5-methyl-4-((3-methyl-3H-imidazo[4,5-b]pyridin-6-yl)oxy)phenyl)amino)pyrido[3,2-d]pyrimidin-6-yl)-8-azabicyclo[3.2.1]octan-8-yl)prop-2-en-1-one]: 310 nM, 37.5 nM, at least 10000 nM and at least 5000 nM.
In the case of `C=CC(=O)N1CCC2CN(c3nc4c(Nc5ccc(Oc6ccn7ncnc7c6)c(Cl)c5F)ncnc4cc3OC)CC21` (stereo not drawn) [Example 38, 1-(5-(4-((4-([1,2,4]triazolo[1,5-a]pyridin-7-yloxy)-3-chloro-2-fluorophenyl)amino)-7-methoxypyrido[3,2-d]pyrimidin-6-yl)hexahydropyrrolo[3,4-b]pyrrol-1(2H)-yl)prop-2-en-1-one], the IC50 was 8.5 nM against ErbB2 WT (ErbB2 WT enzyme), 22.6 nM in test [1] (ErbB2 YVMA phosphorylation), 153 nM against EGFR (EGFR enzyme) and 382 nM at EGFR wild type (EGFR WT) (setting [4]).
As for `C=CC(=O)N1C[C@H]2C[C@@H]1[C@H](c1ccc3ncnc(Nc4ccc(Oc5ccn6ncnc6c5)c(Cl)c4F)c3n1)C2` [Example 231, 1-((1R,4R,6R)-6-(4-((4-([1,2,4]triazolo[1,5-a]pyridin-7-yloxy)-3-chloro-2-fluorophenyl)amino)pyrido[3,2-d]pyrimidin-6-yl)-2-azabicyclo[2.2.1]heptan-2-yl)prop-2-en-1-one], the 50% inhibitory concentration (IC50) at ErbB2 WT (ErbB2 WT enzyme) is 10 nM; in test [1] (ErbB2 YVMA phosphorylation), 8.7 nM; on EGFR (EGFR enzyme) it was 70.5 nM; on EGFR wild type (EGFR WT) (setting [4]), 148 nM.
For `C=CC(=O)N1CC[C@H]2C[C@@H]1CN2c1ccc2ncnc(Nc3ccc(Oc4ccc5c(c4)ncn5C)c(C)c3F)c2n1` [Example 67, 1-((1R,5S)-6-(4-((2-fluoro-3-methyl-4-((1-methyl-1H-benzo[d]imidazol-5-yl)oxy)phenyl)amino)pyrido[3,2-d]pyrimidin-6-yl)-2,6-diazabicyclo[3.2.1]octan-2-yl)prop-2-en-1-one], the IC50 against ErbB2 WT (ErbB2 WT enzyme) is 422 nM; in test [1] (ErbB2 YVMA phosphorylation), 35.8 nM; against EGFR (EGFR enzyme) it was at least 10000 nM; against EGFR wild type (EGFR WT) (setting [4]), at least 5000 nM.
Consider `CC#CC(=O)N1CCN(c2ccc3ncnc(Nc4ccc(Oc5ccn6ncnc6c5)c(Cl)c4F)c3n2)CC12CC2` [Example 181, 1-(7-(4-((4-([1,2,4]triazolo[1,5-a]pyridin-7-yloxy)-3-chloro-2-fluorophenyl)amino)pyrido[3,2-d]pyrimidin-6-yl)-4,7-diazaspiro[2.5]octan-4-yl)but-2-yn-1-one], for which the IC50 was 11.7 nM against ErbB2 WT (ErbB2 WT enzyme), 35.3 nM in test [1] (ErbB2 YVMA phosphorylation), 553 nM against EGFR (EGFR enzyme) and 879 nM against EGFR wild type (EGFR WT) (setting [4]).
Turning to `C=CC(=O)N1CCCN(c2ccc3ncnc(Nc4ccc(Oc5ccn6ncnc6c5)c(Cl)c4)c3n2)CC1` [Example 99, 1-(4-(4-((4-([1,2,4]triazolo[1,5-a]pyridin-7-yloxy)-3-chlorophenyl)amino)pyrido[3,2-d]pyrimidin-6-yl)-1,4-diazepan-1-yl)prop-2-en-1-one], the 50% inhibitory concentration (IC50) at ErbB2 WT (ErbB2 WT enzyme) is 19 nM; in test [1] (ErbB2 YVMA phosphorylation) it was 35.2 nM; at EGFR (EGFR enzyme), 5840 nM; at EGFR wild type (EGFR WT) (setting [4]) it was at least 5000 nM.
Take `CC#CC(=O)N1CCN(c2ccc3ncnc(Nc4ccc(Oc5ccn6ncnc6c5)c(C)c4F)c3n2)CC12CC2` [Example 182, 1-(7-(4-((4-([1,2,4]triazolo[1,5-a]pyridin-7-yloxy)-2-fluoro-3-methylphenyl)amino)pyrido[3,2-d]pyrimidin-6-yl)-4,7-diazaspiro[2.5]octan-4-yl)but-2-yn-1-one]: the IC50 came to 27.3 nM against ErbB2 WT (ErbB2 WT enzyme), 76.1 nM in test [1] (ErbB2 YVMA phosphorylation), 6140 nM against EGFR (EGFR enzyme) and 2730 nM at EGFR wild type (EGFR WT) (setting [4]).

The IC50 is the concentration that gives 50% inhibition. Read a high IC50 as a need for much substance.
